Source: patent publication US11554118B2 (priority 2017, dated 2023)
Read-outs that look alike come from different tables or passages of the source.

How the values were obtained:
BTK [1] = target: BTK (Homo sapiens (Human), UniProt Q06187); assay: biochemical
Method: Btk kinase activity was determined using a homogenous time resolved fluorescence (HTRF) methodology. Measurements were performed in a reaction volume of 15 μL using 384-well assay plates. Kinase enzyme, inhibitor, ATP and 1 M peptide substrate were incubated in a reaction buffer compose of Hepes 50 mM (pH7.0), NaN3 0.02%, BSA 0.01%, Orthocanadate 0.1 mM. […] For each compound, enzyme activity as measured at various concentrations of compound, Negative control reactions were performed in the absence of inhibitor in two replicates and eight no enzyme controls were used to determine baseline fluorescence levels.

Btk [2] = target: Btk (Mus musculus (Mouse), UniProt P35991); assay: Btk occupancy in vivo (PCI-33380 labeling of PBMCs or splenocytes); parameters: species or system BALB/c mice; settings: Babc/L mice, after 4 hours
Btk, sequence (P35991 whole entry, looked up): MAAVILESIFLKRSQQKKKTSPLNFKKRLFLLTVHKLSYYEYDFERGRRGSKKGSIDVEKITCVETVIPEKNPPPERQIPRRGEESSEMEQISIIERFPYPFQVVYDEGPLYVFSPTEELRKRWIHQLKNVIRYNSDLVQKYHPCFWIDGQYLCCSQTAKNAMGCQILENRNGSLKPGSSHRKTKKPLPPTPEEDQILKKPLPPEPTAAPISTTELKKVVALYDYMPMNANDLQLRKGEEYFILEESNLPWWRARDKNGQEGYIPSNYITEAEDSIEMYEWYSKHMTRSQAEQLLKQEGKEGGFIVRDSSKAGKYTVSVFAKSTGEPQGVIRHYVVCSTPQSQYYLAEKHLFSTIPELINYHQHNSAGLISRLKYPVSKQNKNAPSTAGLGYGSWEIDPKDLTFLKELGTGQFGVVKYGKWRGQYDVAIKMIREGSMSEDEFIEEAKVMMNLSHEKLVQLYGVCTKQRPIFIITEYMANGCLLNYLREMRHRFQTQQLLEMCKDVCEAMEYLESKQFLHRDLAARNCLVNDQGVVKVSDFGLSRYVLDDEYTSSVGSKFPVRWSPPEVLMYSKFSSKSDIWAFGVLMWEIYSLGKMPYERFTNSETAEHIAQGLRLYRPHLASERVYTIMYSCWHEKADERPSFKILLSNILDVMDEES
Method: For analysis of Btk occupancy in Babc/L mice following oral dosing of compounds after 4 hours. Isolating peripheral blood mononuclear cells (PBMCs) with mouse peripheral blood separation kit (Hao Yang Biological Manufacture CO., LTD, Tianjin) were collected from Babc/L mice (1 ml blood from two mice). Spleens were processed to splenocytes followed by 5 min incubation in red blood cell lysing buffer (from mouse peripheral blood separation kit).

BTK, sequence (Q06187 whole entry, looked up, species assumed): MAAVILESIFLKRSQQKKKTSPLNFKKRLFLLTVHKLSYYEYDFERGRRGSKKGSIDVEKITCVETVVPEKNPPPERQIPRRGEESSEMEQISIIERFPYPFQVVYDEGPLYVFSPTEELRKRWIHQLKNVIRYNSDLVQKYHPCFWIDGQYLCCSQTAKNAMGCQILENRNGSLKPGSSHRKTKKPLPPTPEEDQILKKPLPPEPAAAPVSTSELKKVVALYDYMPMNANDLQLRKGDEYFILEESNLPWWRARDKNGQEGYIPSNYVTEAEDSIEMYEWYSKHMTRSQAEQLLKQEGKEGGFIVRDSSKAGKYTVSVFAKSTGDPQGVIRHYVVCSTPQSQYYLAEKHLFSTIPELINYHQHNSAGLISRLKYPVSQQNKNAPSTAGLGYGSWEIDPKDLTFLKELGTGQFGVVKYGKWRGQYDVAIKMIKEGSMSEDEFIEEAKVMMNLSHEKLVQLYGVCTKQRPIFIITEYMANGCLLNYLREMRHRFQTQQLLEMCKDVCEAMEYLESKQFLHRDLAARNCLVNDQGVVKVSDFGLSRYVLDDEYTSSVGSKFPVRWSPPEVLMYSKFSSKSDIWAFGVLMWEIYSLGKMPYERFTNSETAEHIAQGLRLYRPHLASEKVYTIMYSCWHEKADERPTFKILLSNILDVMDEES

Molecule `CC#CC(=O)N1CC[C@@H](c2nc(-c3ccc(C(=O)Nc4cc(C(F)(F)F)ccn4)cc3)c3cncc(OCC)n23)C1` [Compound 196, (R)-4-(3-(1-(but-2-ynoyl)pyrrolidin-3-yl)-5-ethoxyimidazo[1,5-a]pyrazin-1-yl)-N-(4-(trifluoromethyl)pyridin-2-yl)benzamide] has an IC50 (BTK [1]) of 100 to 1000 nM.

With `C=CC(=O)N1CCCC[C@H]1c1nc(-c2ccc(Oc3cccc(OC)c3F)cc2)c2c(C)nccn12` [Compound 27, (S)-1-(2-(1-(4-(2-fluoro-3-methoxyphenoxy)phenyl)-8-methylimidazo[1,5-a]pyrazin-3-yl)piperidin-1-yl)prop-2-en-1-one] the “Btk occupancy in vivo” value (Btk [2]; 10 mg/kg single oral dose) was “full occupancy”.

With `C=CC(=O)N1CCC[C@H]1c1nc(-c2ccc(Oc3cccc(OC)c3F)cc2)c2cnccn12` [Compound 30, (S)-1-(2-(1-(4-(2-fluoro-3-methoxyphenoxy)phenyl)imidazo[1,5-a]pyrazin-3-yl)pyrrolidin-1-yl)prop-2-en-1-one] the “Btk occupancy in vivo” value (Btk [2]; 5 mg/kg single oral dose) was “full occupancy”.

Work on `C=CC(=O)N1CC[C@@H](c2nc(-c3ccc(C(=O)Nc4cc(C(F)(F)F)ccn4)cc3F)c3cncc(OCC)n23)C1` [Compound 197, (R)-4-(3-(1-acryloylpyrrolidin-3-yl)-5-ethoxyimidazo[1,5-a]pyrazin-1-yl)-3-fluoro-N-(4-(trifluoromethyl)pyridin-2-yl)benzamide] yielded an IC50 (BTK [1]; read-out: BTK Inhibition) of under 10 nM.

With `C=CC(=O)N1CCC[C@H]1c1nc(-c2ccc(C(=O)Nc3cc(C(F)(F)F)ccn3)cc2)c2cncc(OCC)n12` [Compound 204, (S)-4-(3-(1-acryloylpyrrolidin-2-yl)-5-ethoxyimidazo[1,5-a]pyrazin-1-yl)-N-(4-(trifluoromethyl)pyridin-2-yl)benzamide] the IC50 (BTK [1]; read-out: BTK Inhibition) was under 10 nM.

`CC#CC(=O)N1CC[C@@H](c2nc(-c3ccc(C(=O)Nc4cc(C(F)(F)F)ccn4)cc3F)c3cncc(OCC)n23)C1` [Compound 198, (R)-4-(3-(1-(but-2-ynoyl)pyrrolidin-3-yl)-5-ethoxyimidazo[1,5-a]pyrazin-1-yl)-3-fluoro-N-(4-(trifluoromethyl)pyridin-2-yl)benzamide] was tested, and the IC50 (BTK [1]) was 10 to 100 nM.

In the case of `C=CC(=O)N1CCC[C@@H](c2nc(-c3ccc(Oc4cccc(OC)c4F)cc3)c3cnccn23)C1` [Compound 1, (R)-1-(3-(1-(4-(2-fluoro-3-methoxyphenoxy)phenyl)imidazo[1,5-a]pyrazin-3-yl)piperidin-1-yl)prop-2-en-1-one], the “Btk occupancy in vivo” value (Btk [2]; 5 mg/kg single oral dose) is reported as “full occupancy”.

With `CC#CC(=O)N1CCC[C@H]1c1nc(-c2ccc(C(=O)Nc3cc(C(F)(F)F)ccn3)cc2)c2cncc(OCC)n12` [Compound 203, (S)-4-(3-(1-(but-2-ynoyl)pyrrolidin-2-yl)-5-ethoxyimidazo[1,5-a]pyrazin-1-yl)-N-(4-(trifluoromethyl)pyridin-2-yl)benzamide] the IC50 (BTK [1]) was 100 to 1000 nM.
